One molecule from patent US20030233678A1, “Pre- and post-harvest inhibition of remobilisation of storage compounds” (Mogen International N.V., priority 1997, published 2003) can be followed below.

The test system of this test is potato tuber pieces containing at least one active meristem (wild-type and tps). The test is described as follows: Sprouting of cut tuber pieces incubated on gibberellic acid solutions. It counts as in vivo, Solanum tuberosum Var. Kardal. As to conditions: 1, 10 or 1000 ppm solution, 10 min incubation. As for the experimental part:
Pat-TPS plants (Var. […]) derived from tissue culture plants were grown in the phytochamber under 500 μmol quanta m-2 s-1 (16 h light, 20° C.; 8 h dark (15° C.)). Tubers were harvested after three months and stored in the cold (4° C.) for 2 months. Three days after transfer to room temperature (RT), tuber pieces were cut with a knife containing at least one active meristem (eye). Cut pieces originating from 3-10 tubers per line were washed for 15 min in tap water. Approximately 6-10 pieces were subsequently incubated for 10 min on either water or on a 1, 10 or 1000 ppm solution of gibberellic acid (GA3, SIGMA, Zwijndrecht, Netherlands). All pieces from one treatment were transferred to containers onto wet paper tissue and covered with a plastic top to prevent drying out.

As to `C=C1C[C@]23C[C@@]1(O)CC[C@H]2[C@@]12C=C[C@H](O)[C@@](C)(C(=O)O1)[C@H]2[C@@H]3C(=O)O` [GA3, gibberellic acid], the “time until sprouting occurred” value by setting is: (tps tuber pieces) at most 4 days; (wild-type tuber pieces) at most 4 days.
